From the CheMixHub ionic liquid set
“And” between values parts separate entries of the source, which are not always exact repeats. Equal values may be shown once.

Experiment: xn = mol fraction of the nth substance listed

CC[n+]1ccn(C)c1.O=S(=O)([N-]S(=O)(=O)C(F)(F)F)C(F)(F)F + COC(=O)OC
viscosity [mPa·s], 101.3 kPa
Conditions | 288.15 K | 293.15 K | 298.15 K | 303.15 K | 308.15 K | 313.15 K
x1 = 0.00265 | 0.69 | 0.644 | 0.604 | 0.567 | 0.534 | 0.504
x1 = 0.005572 | 0.717 | 0.67 | 0.627 | 0.588 | 0.554 | 0.523
x1 = 0.006266 | 0.73 | 0.681 | 0.637 | 0.599 | 0.563 | 0.532
x1 = 0.006515 | 0.73 | 0.682 | 0.637 | 0.598 | 0.563 | 0.531
x1 = 0.008405 | 0.748 | 0.698 | 0.653 | 0.612 | 0.576 | 0.543
x1 = 0.01068 | 0.778 | 0.724 | 0.676 | 0.634 | 0.596 | 0.562
x1 = 0.01231 | 0.795 | 0.74 | 0.691 | 0.648 | 0.609 | 0.573
x1 = 0.01323 | 0.813 | 0.757 | 0.707 | 0.662 | 0.623 | 0.587
x1 = 0.01407 | 0.821 | 0.763 | 0.713 | 0.668 | 0.628 | 0.591
x1 = 0.01462 | 0.823 | 0.766 | 0.716 | 0.671 | 0.63 | 0.594
x1 = 0.01829 | 0.861 | 0.801 | 0.747 | 0.699 | 0.656 | 0.618
x1 = 0.01968 | 0.873 | 0.812 | 0.757 | 0.708 | 0.664 | 0.626
x1 = 0.02012 | 0.879 | 0.817 | 0.762 | 0.713 | 0.669 | 0.63
x1 = 0.02014 | 0.878 | 0.816 | 0.76 | 0.712 | 0.667 | 0.628
x1 = 0.02562 | 0.928 | 0.861 | 0.804 | 0.751 | 0.704 | 0.662
x1 = 0.03021 | 0.956 | 0.886 | 0.824 | 0.769 | 0.72 | 0.676
x1 = 0.03102 | 0.964 | 0.893 | 0.83 | 0.774 | 0.725 | 0.68
x1 = 0.03106 | 0.961 | 0.89 | 0.828 | 0.773 | 0.723 | 0.68
x1 = 0.03348 | 0.982 | 0.91 | 0.846 | 0.79 | 0.739 | 0.694
x1 = 0.03766 | 1.018 | 0.943 | 0.877 | 0.818 | 0.765 | 0.718
x1 = 0.04567 | 1.086 | 1.005 | 0.934 | 0.871 | 0.814 | 0.764
x1 = 0.04728 | 1.111 | 1.029 | 0.945 | 0.881 | 0.824 | 0.773
x1 = 0.05348 | 1.15 | 1.064 | 0.988 | 0.92 | 0.86 | 0.807
x1 = 0.05932 | 1.205 | 1.113 | 1.033 | 0.962 | 0.898 | 0.841

CO + COP(=O)([O-])OC.Cn1cc[n+](C)c1
101 kPa, x1 = 1
Conditions | viscosity [mPa·s]
303.15 K | 0.521
318.15 K | 0.44

CO + CS(=O)(=O)[O-].C[N+](C)(CCO)CCO
101 kPa, x2 = 0
Conditions | viscosity [mPa·s]
298.15 K | 0.576
303.15 K | 0.539
308.15 K | 0.506
313.15 K | 0.477
318.15 K | 0.453
323.15 K | 0.43

CC[n+]1ccn(C)c1.F[B-](F)(F)F + CS(C)=O
Conditions | electrical conductivity | viscosity [mPa·s]
293.15 K, 100 kPa, x2 = 0.4781 | – | 19.1
298.1 K, 100 kPa, x1 = 0.021 | 0.55 S/m and 0.79 S/m | –
298.1 K, 100 kPa, x1 = 0.218 | 1.77 S/m | –
298.1 K, 100 kPa, x1 = 0.381 | 1.56 S/m | –
298.1 K, 100 kPa, x1 = 0.623 | 1.37 S/m | –
298.15 K, 100 kPa, x2 = 0.4098 | – | 19.1
303.15 K, 100 kPa, x2 = 0.7866 | – | 4.91
303.15 K, 101 kPa, x2 = 0.2996 | – | 17.26
303.15 K, 101 kPa, x2 = 0.6002 | – | 8.52
303.15 K, 101 kPa, x2 = 0.7996 | – | 4.395
313.15 K, 100 kPa, x2 = 0 | – | 24.8
313.15 K, 100 kPa, x2 = 0.2931 | – | 15.4
313.15 K, 101 kPa, x2 = 0.2996 | – | 12.88
323.15 K, 101 kPa, x2 = 0.4 | – | 8.2
323.15 K, 101 kPa, x2 = 0.9002 | – | 1.996
333.15 K, 101 kPa, x2 = 0.9002 | – | 1.71
343.15 K, 100 kPa, x2 = 0 | – | 11.7
343.15 K, 100 kPa, x2 = 0.2931 | – | 7.6
343.15 K, 100 kPa, x2 = 0.8959 | – | 1.61
353.15 K, 100 kPa, x2 = 0.4781 | – | 4.48

COCCCC[n+]1ccn(C)c1.NCC(=O)[O-] + CS(C)=O
100 kPa
Conditions | viscosity [mPa·s]
288.15 K, x1 = 0.4986 | 49.18
293.15 K, x1 = 0.4986 | 37.24
293.15 K, x1 = 0.6006 | 51.07
293.15 K, x1 = 0.7941 | 84.3
298.15 K, x1 = 0.7941 | 65.57
298.15 K, x1 = 1 | 97.2
303.15 K, x1 = 0.1009 | 4.18
303.15 K, x1 = 0.299 | 10.12
308.15 K, x1 = 0.1009 | 3.59
308.15 K, x1 = 0.299 | 8.41
308.15 K, x1 = 0.701 | 34.9
318.15 K, x1 = 0.1009 | 2.72

CO + C[N+](C)(C)CCC[N+]1(C)CCCCC1.N#C[N-]C#N.N#C[N-]C#N
100 kPa, x2 = 0
Conditions | viscosity [mPa·s]
293.15 K | 0.584
323.15 K | 0.395

CO + C[N+](C)(C)CCO.NCC(=O)[O-]
100 kPa, x2 = 0
Conditions | viscosity [mPa·s]
298.15 K | 0.58
303.15 K | 0.55
308.15 K | 0.51
313.15 K | 0.47
318.15 K | 0.44
323.15 K | 0.41

OCCCCCCO + C[N+](C)(C)Cc1ccccc1.[Cl-]
101.13 kPa, x2 = 0.5
Conditions | electrical conductivity [S/m] | viscosity [mPa·s]
298 K | 0.084 | –
308 K | – | 73
